The test system of assay [1] is CatG. Briefly: Bone marrow CatG activity after repeated dosing, C57BL/6 mice. The assay is classed as in vivo. As to conditions: for Reduction of CatG activity vs vehicle / Change From Vehicle Control (%) CatG: 7 days. As to the method: Briefly, animals were weighed and randomized into different treatment groups. In total, three different dosing levels of brensocatib were tested in each species and strain; each QD dosing level was equivalent to 1.5-times the matching daily BID dose. For BID dosing, the second daily dose was administered 8-h post the morning dose. C57BL/6 mice were dosed either BID or QD for 7 consecutive days at 0/0, 0.5/0.75, 2/3, and 20/30 mg/kg/day (BID/QD). BALB/c mice were dosed for 7 consecutive days at 0/0, 0.2/0.3, 2/3, and 20/30 mg/kg/day (BID/QD). SD rats were dosed for 9 consecutive days at 0/0, 0.2/0.3, 2/3, and 20/30 mg/kg/day (BID/QD). Wistar rats were dosed for 7 consecutive days at 0/0, 0.2/0.3, 2/3, and 20/30 mg/kg/day (BID/QD).
At the completion of the study, animals were sacrificed 16–24 h post their final dose. The hind limb bones (femurs and tibias) were collected at necropsy for bone marrow analysis of NSP activities by kinetic enzymatic assays ([Basso et al., 2022]). See section Quantification of Bone Marrow NSP Activities for details.
(§1) For the mice, each animal had the femurs and tibias of both hind limbs harvested. For the rat, the femur and tibia from a single hind limb per animal was harvested. Bones were kept on wet ice until processing for bone marrow collection. In brief, bone cutters were used to cut the epiphysis (knobby ends) off the long bones to expose the bone marrow filled cavity. Each bone cavity was then flushed with 5 mL/bone (mouse) or 10 mL/bone (rat) of ice-cold RPMI media through a […] and collected in a 50-mL conical tube. Cells were spun down at 2,500 × g at 4°C for 5 min and the supernatant was aspirated. After which, bone marrow cells were lysed with 1X red blood cell (RBC) lysis buffer (Abcam, ab204733) to eliminate contaminating RBCs and washed with PBS to remove any residual RBC lysis buffer. The resulting white blood cells (WBC) were subsequently lysed with 1% (v/v) Triton X-100 in PBS. Lysates were added to 96-well plates and stored at −80°C until NSP analyses.
(§2) Bone marrow lysates prepared as described above were diluted and plated onto 96-well assay plates to quantify NSP activities as described previously ([Basso et al., 2022]). Briefly, peptide substrates for NE (N-Methoxysuccinyl-Ala-Ala-Pro-Val-7-amido-4-methylcoumarin; Sigma; St. Louis, MO; Excitation/Emission at 350/450 nm), PR3 ((7-Methoxycoumarin-4-yl)acetyl-lysyl-(picolinoyl)-Tyr-Asp-Ala-Lys-Gly-Asp-N-3-(2-4-dinitrophenyl)-2-3-diaminopropyonyl-NH2); GenScript; Piscataway, NJ; Excitation/Emission at 340/430 nm), and CatG (N-Succinyl-Ala-Ala-Pro-Phe p nitroanilide; Sigma; Absorbance at 405 nm) were added at a final assay concentration of 100 μM, 40 μM, and 200 μM, respectively, and either fluorescence or absorbance was quantified using a Synergy microplate reader (BioTek; Winooski, VT). The specific NSP activity in each sample was calculated as the total activity minus the activity in the presence of a specific NSP inhibitor (if used), including elastase inhibitor (Abcam) for NE, sivelestat (Abcam) for PR3, and cathepsin G inhibitor I (Cayman Chemical; Ann Arbor, MI) for CatG. NSP concentrations were interpolated based on their activities relative to the standard curves created using active human NE protein (Sigma), active human PR3 protein (Sigma), and active human CatG protein (Sigma), respectively. Due to unavailability of commercial mouse and/or rat NE, PR3, and CatG proteins, the corresponding human proteins were used instead since their catalytic ability is considered to be conserved across species. A portion of each cell lysate sample was retained for protein quantification using a Pierce™ BCA Protein Assay Kit (Thermo Fisher). The NSP activities were normalized for the cell lysate protein concentrations.
The Pierce™ BCA Protein Assay Kit was used to measure the total protein of the samples after lysis to allow for subsequent normalization. […]

Assay [2] relates to PR3. Briefly: PD onset study, bone marrow PR3 activity, C57BL/6 mice. The assay is classed as in vivo. To be noted: for Percent change from vehicle PR3: bone marrow, 5 mg/kg BID oral. Here is the method:
A 14-day PD onset study was performed in female C57BL/6 mice dosed BID. Mice were dosed by oral gavage either with vehicle (0 mg/kg) or 5 mg/kg brensocatib (BID; 10 mg/kg/day) for 1, 4, 7, 10, or 14 consecutive days. Plasma was collected from animals during the first 24 h of dosing at 1, 2, 8, 9, 10, and 24 h post the initial dose. Note the 8- and 24-h plasma samples were prior to the afternoon dose and the second day dose (if applicable), respectively. Plasma was used for PK analysis via LC-MS/MS. On prescribed days, animals were sacrificed 16 h post final dose, and the hind bones (femurs and tibias) were collected at necropsy for bone marrow analysis of NSP activities by kinetic enzymatic assays.
as §1, §2
The Pierce™ BCA Protein Assay Kit was used to measure the total protein of the samples after lysis to allow for subsequent normalization. The manufacturer’s instructions for use were followed when performing this assay on a portion of the sample lysates which were diluted in PBS, the same diluent as used for preparation of the standard. Plates were read on the Biotek Synergy plate reader with Gen5 software.

Setting [3] is: 5 mg/kg BID, curve fit with free min and max.

For `Cn1c(=O)oc2ccc(-c3ccc(C[C@@H](C#N)NC(=O)[C@@H]4CNCCCO4)cc3)cc21` [brensocatib], the results for the “Reduction of CatG activity vs vehicle” value in assay [1] (BID highest dose (20 mg/kg/day)) and in assay [1] (QD highest dose (30 mg/kg/day)) were 94% and 87%, respectively. Besides, the “Combined BID and QD percent reduction, CatG” value in assay [1] (highest dose level 20/30 (BID/QD) mg/kg/day) worked out at 90%. Also, the “Change From Vehicle Control (%) CatG” value in assay [1] (oral BID 0.5 mg/kg/day, 16 h post final dose) is −16% (p = 0.1964); in assay [1] (oral BID 2 mg/kg/day, 16 h post final dose) it was −71% (p < 0.0001); in assay [1] (oral BID 20 mg/kg/day, 16 h post final dose), −94% (p < 0.0001); in assay [1] (oral QD 0.75 mg/kg/day, 24 h post final dose) it was −1% (p = 0.9999); in assay [1] (oral QD 3 mg/kg/day, 24 h post final dose), −64% (p < 0.0001); in assay [1] (oral QD 30 mg/kg/day, 24 h post final dose), −87% (p < 0.0001). In addition, in assay [2] (setting [3]), the “Onset: Maximum reduction (plateau), PR3” value is given as 76%. In assay [2] (setting [3]), the “Onset: Time to reach 50% reduction, PR3” value was determined as 4.5 days. The “Onset: Time to reach max reduction, PR3” value in assay [2] (setting [3]) turned out to be 8.0 days. Also, the “Percent change from vehicle PR3” value in assay [2] (after 1 day of treatment) is −5% (p = 0.9972); in assay [2] (after 4 days of treatment) it was −43% (p = 0.0236); in assay [2] (after 7 days of treatment), −85% (p < 0.0001); in assay [2] (after 10 days of treatment) it was −71% (p < 0.0001); in assay [2] (after 14 days of treatment), −81% (p < 0.0001).

For the origin of these results see article PMC10394516, “The pharmacokinetic profile of brensocatib and its effect on pharmacodynamic biomarkers including NE, PR3, and CatG in various rodent species” (Frontiers in Pharmacology, 2023).
